The results in this text go back to the NIST ThermoML archive (doi:10.1007/s10765-007-0182-2).

± gives the expanded uncertainty stated by the source.

The conditions of the data set: 101.33 kPa, Liquid, hot wire.

Regarding `[Pb]` [lead], the thermal conductivity reads like this: (620.3 K) 16.2 ± 1 W/m/K; (678.1 K) 17 ± 1.1 W/m/K; (729.5 K) 17.6 ± 1.1 W/m/K.
